Laboratory results: ChEMBL document CHEMBL5113453, “Design, synthesis, and biological evaluation of a new series of pyrazole derivatives: Discovery of potent and selective JNK3 kinase inhibitors” (Bioorg Med Chem, 2022)

What was measured:
SK-MEL-28 = assay: Antiproliferative activity against human SK-MEL-28 cells measured after 48 hrs by SRB assay; format: functional, cell-based
HL-60(TB) = assay: Antiproliferative activity against human HL-60(TB) cells measured after 48 hrs by SRB assay; format: functional, cell-based
NCI-H226 = assay: Antiproliferative activity against human NCI-H226 cells measured after 48 hrs by SRB assay; format: functional, cell-based
HOP-62 = assay: Antiproliferative activity against human HOP-62 cells measured after 48 hrs by SRB assay; format: functional, cell-based
SK-MEL-2 = assay: Antiproliferative activity against human SK-MEL-2 cells measured after 48 hrs by SRB assay; format: functional, cell-based
SF-295 = assay: Antiproliferative activity against human SF-295 cells measured after 48 hrs by SRB assay; format: functional, cell-based
HCT-15 = assay: Antiproliferative activity against human HCT-15 cells measured after 48 hrs by SRB assay; format: functional, cell-based
NCI-H23 = assay: Antiproliferative activity against human NCI-H23 cells measured after 48 hrs by SRB assay; format: functional, cell-based
NCI-H522 = assay: Antiproliferative activity against human NCI-H522 cells measured after 48 hrs by SRB assay; format: functional, cell-based
DU-145 = assay: Antiproliferative activity against human DU-145 cells measured after 48 hrs by SRB assay; format: functional, cell-based
U-251 = assay: Antiproliferative activity against human U-251 cells measured after 48 hrs by SRB assay; format: functional, cell-based
A498 = assay: Antiproliferative activity against human A498 cells measured after 48 hrs by SRB assay; format: functional, cell-based
SW-620 = assay: Antiproliferative activity against human SW-620 cells measured after 48 hrs by SRB assay; format: functional, cell-based
SF-268 = assay: Antiproliferative activity against human SF-268 cells measured after 48 hrs by SRB assay; format: functional, cell-based
SN12C = assay: Antiproliferative activity against human SN12C cells measured after 48 hrs by SRB assay; format: functional, cell-based
COLO 205 = assay: Antiproliferative activity against human COLO 205 cells measured after 48 hrs by SRB assay; format: functional, cell-based
A549 = assay: Antiproliferative activity against human A549 cells measured after 48 hrs by SRB assay; format: functional, cell-based
[1] = biological target: T1, Mitogen-activated protein kinase 10 (Homo sapiens, UniProt P53779); assay: Inhibition of JNK3 (unknown origin)
T1 sequence (P53779 whole entry): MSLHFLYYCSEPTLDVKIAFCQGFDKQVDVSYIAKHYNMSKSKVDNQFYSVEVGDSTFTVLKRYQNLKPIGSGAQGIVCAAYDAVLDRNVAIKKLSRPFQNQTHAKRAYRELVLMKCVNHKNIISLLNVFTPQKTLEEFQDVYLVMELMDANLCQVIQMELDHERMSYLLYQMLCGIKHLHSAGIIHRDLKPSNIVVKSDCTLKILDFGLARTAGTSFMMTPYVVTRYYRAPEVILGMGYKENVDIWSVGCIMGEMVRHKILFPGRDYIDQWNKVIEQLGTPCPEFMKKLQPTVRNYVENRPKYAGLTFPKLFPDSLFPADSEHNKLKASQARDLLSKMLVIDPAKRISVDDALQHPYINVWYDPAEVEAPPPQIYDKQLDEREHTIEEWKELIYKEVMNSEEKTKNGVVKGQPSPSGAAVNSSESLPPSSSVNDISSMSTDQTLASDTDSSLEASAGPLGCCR

SNB-19 = assay: Antiproliferative activity against human SNB-19 cells measured after 48 hrs by SRB assay; format: functional, cell-based
[2] = biological target: T1, Mitogen-activated protein kinase 10; assay: Inhibition of JNK3 (unknown origin) at 1 uM relative to control
RPMI-8226 = assay: Antiproliferative activity against human RPMI-8226 cells measured after 48 hrs by SRB assay; format: functional, cell-based
HCT-116 = assay: Antiproliferative activity against human HCT-116 cells measured after 48 hrs by SRB assay; format: functional, cell-based
ACHN = assay: Antiproliferative activity against human ACHN cells measured after 48 hrs by SRB assay; format: functional, cell-based
HT-29 = assay: Antiproliferative activity against human HT-29 cells measured after 48 hrs by SRB assay; format: functional, cell-based
SK-OV-3 = assay: Antiproliferative activity against human SK-OV-3 cells measured after 48 hrs by SRB assay; format: functional, cell-based
SK-MEL-5 = assay: Antiproliferative activity against human SK-MEL-5 cells measured after 48 hrs by SRB assay; format: functional, cell-based
NCI-H460 = assay: Antiproliferative activity against human NCI-H460 cells measured after 48 hrs by SRB assay; format: functional, cell-based
BT-549 = assay: Antiproliferative activity against human BT-549 cells measured after 48 hrs by SRB assay; format: functional, cell-based
WI-38 = assay: Antiproliferative activity against human WI-38 cells measured by MTT assay; format: functional, cell-based
UO-31 = assay: Antiproliferative activity against human UO-31 cells measured after 48 hrs by SRB assay; format: functional, cell-based
UACC-62 = assay: Antiproliferative activity against human UACC-62 cells measured after 48 hrs by SRB assay; format: functional, cell-based
OVCAR-5 = assay: Antiproliferative activity against human OVCAR-5 cells measured after 48 hrs by SRB assay; format: functional, cell-based
K562 = assay: Antiproliferative activity against human K562 cells measured after 48 hrs by SRB assay; format: functional, cell-based
OVCAR-8 = assay: Antiproliferative activity against human OVCAR-8 cells measured after 48 hrs by SRB assay; format: functional, cell-based
T47D = assay: Antiproliferative activity against human T47D cells measured after 48 hrs by SRB assay; format: functional, cell-based
OVCAR-4 = assay: Antiproliferative activity against human OVCAR-4 cells measured after 48 hrs by SRB assay; format: functional, cell-based
MDA-MB-468 = assay: Antiproliferative activity against human MDA-MB-468 cells measured after 48 hrs by SRB assay; format: functional, cell-based
MOLT-4 = assay: Antiproliferative activity against human MOLT-4 cells measured after 48 hrs by SRB assay; format: functional, cell-based
HOP-92 = assay: Antiproliferative activity against human HOP-92 cells measured after 48 hrs by SRB assay; format: functional, cell-based

SMILES: O=C(NCCCNc1cc(-c2cn(-c3ccccc3)nc2-c2cccc(O)c2)ccn1)Nc1ccc(F)cc1
- IC50 (SK-MEL-28; SK-MEL-28, 48 h): 2540 nM
- TGI (SK-MEL-28; SK-MEL-28, time 48 hrs): 5.64 µM
- IC50 (HL-60(TB); HL-60, 48 h): 2150 nM
- TGI (HL-60(TB); HL-60, time 48 hrs): 14.2 µM
- IC50 (NCI-H226; NCI-H226, 48 h): 3.39 µM
- TGI (NCI-H226; NCI-H226, time 48 hrs): 8.91 µM
- IC50 (HOP-62; HOP-62, 48 h): 3.24 µM
- TGI (HOP-62; HOP-62, time 48 hrs): 9.26 µM
- IC50 (SK-MEL-2; SK-MEL-2, 48 h): 4 µM
- TGI (SK-MEL-2; SK-MEL-2, time 48 hrs): 10.1 µM
- IC50 (SF-295; SF-295, 48 h): 1380 nM
- TGI (SF-295; SF-295, time 48 hrs): 4.84 µM
- IC50 (HCT-15; HCT-15, 48 h): 940 nM
- TGI (HCT-15; HCT-15, time 48 hrs): 4.04 µM
- IC50 (NCI-H23; NCI-H23, 48 h): 3.11 µM
- TGI (NCI-H23; NCI-H23, time 48 hrs): 7.65 µM
- IC50 (NCI-H522; NCI-H522, 48 h): 4.03 µM
- TGI (NCI-H522; NCI-H522, time 48 hrs): 9.49 µM
- IC50 (DU-145; DU-145, 48 h): 4.22 µM
- TGI (DU-145; DU-145, time 48 hrs): 19.3 µM
- IC50 (U-251; U-251, 48 h): 2050 nM
- TGI (U-251; U-251, time 48 hrs): 7.55 µM
- IC50 (A498; A498, 48 h): 1210 nM
- TGI (A498; A498, time 48 hrs): 4.96 µM
- IC50 (SW-620; SW-620, 48 h): 3.04 µM
- TGI (SW-620; SW-620, time 48 hrs): 6.73 µM
- IC50 (SF-268; SF-268, 48 h): 2610 nM
- TGI (SF-268; SF-268, time 48 hrs): 11.2 µM
- IC50 (SN12C; 48 h): 2790 nM
- TGI (SN12C; time 48 hrs): 8.37 µM
- IC50 (COLO 205; COLO 205, 48 h): 2340 nM
- TGI (COLO 205; COLO 205, time 48 hrs): 6.28 µM
- IC50 (A549; A549, 48 h): 3.12 µM
- TGI (A549; A549, time 48 hrs): > 21.7 µM
- IC50 [1]: 97.4 nM
- IC50 (SNB-19; SNB-19, 48 h): 3.29 µM
- TGI (SNB-19; SNB-19, time 48 hrs): 9.75 µM
- inhibition [2]: 94%
- IC50 (RPMI-8226; RPMI-8226, 48 h): 870 nM
- TGI (RPMI-8226; RPMI-8226, time 48 hrs): 5.47 µM
- IC50 (HCT-116; HCT-116, 48 h): 1620 nM
- TGI (HCT-116; HCT-116, time 48 hrs): 5.82 µM
- IC50 (ACHN; 48 h): 3.16 µM
- TGI (ACHN; time 48 hrs): 14.2 µM
- IC50 (HT-29; HT-29, 48 h): 1090 nM
- TGI (HT-29; HT-29, time 48 hrs): 4.99 µM
- IC50 (SK-OV-3; SK-OV-3, 48 h): 3.12 µM
- TGI (SK-OV-3; SK-OV-3, time 48 hrs): 10.8 µM
- IC50 (SK-MEL-5; SK-MEL-5, 48 h): 1640 nM
- TGI (SK-MEL-5; SK-MEL-5, time 48 hrs): 4.83 µM
- IC50 (NCI-H460; NCI-H460, 48 h): 2350 nM
- TGI (NCI-H460; NCI-H460, time 48 hrs): 5.88 µM
- IC50 (BT-549; BT-549, 48 h): 2180 nM
- TGI (BT-549; BT-549, time 48 hrs): 11.6 µM
- IC50 (WI-38): 16.8 µM
- IC50 (UO-31; UO-31, 48 h): 1580 nM
- TGI (UO-31; UO-31, time 48 hrs): 9.7 µM
- IC50 (UACC-62; UACC-62, 48 h): 3.14 µM
- TGI (UACC-62; UACC-62, time 48 hrs): 6.6 µM
- IC50 (OVCAR-5; OVCAR-5, 48 h): 3.37 µM
- TGI (OVCAR-5; OVCAR-5, time 48 hrs): 9.12 µM
- IC50 (K562; K562, 48 h): 810 nM
- TGI (K562; K562, time 48 hrs): > 14.2 µM
- IC50 (OVCAR-8; OVCAR-8, 48 h): 2130 nM
- TGI (OVCAR-8; OVCAR-8, time 48 hrs): 9.26 µM
- IC50 (T47D; 48 h): 1890 nM
- TGI (T47D; time 48 hrs): 11 µM
- IC50 (OVCAR-4; OVCAR-4, 48 h): 1460 nM
- TGI (OVCAR-4; OVCAR-4, time 48 hrs): 8.21 µM
- IC50 (MDA-MB-468; MDA-MB-468, 48 h): 1180 nM
- TGI (MDA-MB-468; MDA-MB-468, time 48 hrs): 4.66 µM
- IC50 (MOLT-4; MOLT-4, 48 h): 1250 nM
- TGI (MOLT-4; MOLT-4, time 48 hrs): 15.6 µM
- IC50 (HOP-92; HOP-92, 48 h): 860 nM
- TGI (HOP-92; HOP-92, time 48 hrs): 4.97 µM
